The supplement of paper PMC10307832

Columns and labels:
Midostaurin = compound: CO[C@@H]1[C@H](N(C)C(=O)c2ccccc2)C[C@H]2O[C@]1(C)n1c3ccccc3c3c4c(c5c6ccccc6n2c5c31)C(=O)NC4 [Midostaurin]; test: relative viability (nuclei count vs DMSO), 5 days (fraction); higher = more cells survive
Summary of the method: (§1)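 Viability was defined as treated-well nuclei divided by vehicle-well nuclei, with the median taken over replicate plates. Cells from lung cancer lines sat overnight at 37 °C in 1536-well plates, received five √10-spaced library-drug doses by pinning on vehicle-anchored plates, and grew 5 days without medium change before one-step fixation, permeabilisation and Hoechst staining, 4× imaging and MetaXpress nuclear counts. Only plates with control CV under 25% and at least one doubling were kept.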

[1] = compound: COc1cc(-c2nn([C@H]3CC[C@H](N4CCN(C(C)=O)CC4)CC3)c3ncnc(N)c23)ccc1NC(=O)c1cc2ccccc2n1C; test: as above
Summary of the method: as §1

Row | Cell Line | relative viability (Midostaurin; 0.01 µM) | relative viability (Midostaurin; 0.03162 µM) | relative viability (Midostaurin; 0.1 µM) | relative viability (Midostaurin; 0.3162 µM) | relative viability ([1]; 0.0128 µM) | relative viability ([1]; 0.04048 µM) | relative viability ([1]; 0.128 µM) | relative viability ([1]; 1.28 µM)
1 | NCI-H661 | 0.963 | 0.869 | 0.991 | 1.11 | 1.02 | 1.07 | 1 | 0.779
2 | NCI-H727 | 1.03 | 0.82 | 1.05 | 0.767 | 0.974 | – | 0.826 | 0.906
3 | NCI-H838 | 1 | 0.927 | 0.801 | 0.667 | 0.953 | 0.995 | 0.899 | 0.728
4 | NCI-H1299 | 1.01 | 0.974 | 0.975 | 0.965 | 1.06 | 1.11 | 1 | 1
5 | NCI-H1355 | 1 | 0.948 | 1.09 | 1.04 | 1.06 | 0.981 | 0.943 | 0.953
6 | NCI-H1395 | 0.919 | 0.977 | 0.88 | 0.922 | 0.907 | 0.847 | 0.798 | 0.659
7 | NCI-H1437 | 0.96 | 0.999 | 0.972 | 0.92 | 0.979 | 1.04 | 0.964 | 0.906
8 | NCI-H1563 | 1.09 | 1.03 | 0.957 | 0.769 | 1.04 | 1.12 | 0.971 | 0.709
9 | NCI-H1623 | 0.982 | 0.956 | 1.05 | 1.23 | 1.01 | 1.05 | 0.946 | 0.739
10 | NCI-H1648 | 0.937 | 0.803 | 0.724 | 0.927 | 0.964 | 0.766 | 0.858 | 0.721
11 | NCI-H1650 | 0.915 | 0.957 | 0.921 | 0.937 | 0.922 | 1.1 | 0.941 | 0.812
12 | NCI-H1651 | 0.95 | 1 | 1.01 | 1.09 | 0.97 | 1.07 | 0.923 | 0.968
13 | NCI-H1666 | 1.03 | 0.953 | 0.992 | 0.888 | 0.98 | 0.872 | 0.947 | 0.941
14 | NCI-H1703 | 0.958 | 0.869 | 0.64 | 0.266 | 0.968 | 0.581 | 0.803 | 0.324
15 | NCI-H1734 | 0.939 | 0.939 | 0.998 | 0.871 | 1 | 0.944 | 0.948 | 0.783
16 | NCI-H1755 | 0.983 | 0.983 | 0.962 | 0.977 | 1.12 | 0.983 | 0.937 | 0.938
17 | NCI-H1792 | 0.954 | 0.697 | 0.929 | 0.777 | 0.975 | 0.878 | 1.02 | 0.951
18 | NCI-H1793 | 1.16 | 0.848 | 0.89 | 0.762 | 0.904 | 0.827 | 0.858 | 0.649
19 | NCI-H1915 | 0.951 | 0.946 | 0.951 | 1.03 | 1.03 | 0.783 | 0.957 | 0.831
20 | NCI-H1944 | 0.963 | 0.987 | 0.931 | 1.15 | 1.09 | 0.983 | 0.921 | 0.769
